Experimental data: the supplement of paper PMC10307832

Key:
Assay in all cases: relative viability (nuclei count vs DMSO), 5 days (fraction); higher = more cells survive
Crenolanib + Navitoclax = compound: CC1(COc2ccc3c(c2)ncn3-c2ccc3cccc(N4CCC(N)CC4)c3n2)COC1 [Crenolanib] + CC1(C)CCC(c2ccc(Cl)cc2)=C(CN2CCN(c3ccc(C(=O)NS(=O)(=O)c4ccc(N[C@H](CCN5CCOCC5)CSc5ccccc5)c(S(=O)(=O)C(F)(F)F)c4)cc3)CC2)C1 [Navitoclax] (partner 0.5 µM)
How it was run: (§1)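 Lung cancer cell lines, seeded in 1536-well plates, were treated the following day by pin tool with a single drug or with five library-drug doses (not always all listed) in √10 steps on top of a fixed anchor-drug dose. Cells were fixed and nuclei stained in one step after 5 days, and nuclei were counted. Relative viability is the nuclei count for treated wells divided by that for vehicle wells, reported as medians of duplicate plates.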

Crenolanib + Lapatinib = compound: CC1(COc2ccc3c(c2)ncn3-c2ccc3cccc(N4CCC(N)CC4)c3n2)COC1 [Crenolanib] + CS(=O)(=O)CCNCc1ccc(-c2ccc3ncnc(Nc4ccc(OCc5cccc(F)c5)c(Cl)c4)c3c2)o1 [Lapatinib] (partner 2 µM)
How it was run: as §1

Tivantinib + Luminespib = compound: O=C1NC(=O)[C@@H](c2cn3c4c(cccc24)CCC3)[C@@H]1c1c[nH]c2ccccc12 [Tivantinib] + CCNC(=O)c1noc(-c2cc(C(C)C)c(O)cc2O)c1-c1ccc(CN2CCOCC2)cc1 [Luminespib] (partner 0.01 µM)
How it was run: as §1

Tivantinib + Dasatinib = compound: O=C1NC(=O)[C@@H](c2cn3c4c(cccc24)CCC3)[C@@H]1c1c[nH]c2ccccc12 [Tivantinib] + Cc1nc(Nc2ncc(C(=O)Nc3c(C)cccc3Cl)s2)cc(N2CCN(CCO)CC2)n1 [Dasatinib] (partner 0.075 µM)
How it was run: as §1

Cell Line	relative viability (Crenolanib + Navitoclax; first compound 0.01 µM)	relative viability (Crenolanib + Navitoclax; first compound 0.03162 µM)	relative viability (Crenolanib + Navitoclax; first compound 0.1 µM)	relative viability (Crenolanib + Navitoclax; first compound 0.3162 µM)	relative viability (Crenolanib + Navitoclax; first compound 1 µM)	relative viability (Crenolanib + Lapatinib; first compound 0.01 µM)	relative viability (Crenolanib + Lapatinib; first compound 0.03162 µM)	relative viability (Crenolanib + Lapatinib; first compound 0.1 µM)	relative viability (Crenolanib + Lapatinib; first compound 0.3162 µM)	relative viability (Crenolanib + Lapatinib; first compound 1 µM)	relative viability (Tivantinib + Luminespib; first compound 0.01 µM)	relative viability (Tivantinib + Luminespib; first compound 0.03162 µM)	relative viability (Tivantinib + Luminespib; first compound 0.1 µM)	relative viability (Tivantinib + Luminespib; first compound 0.3162 µM)	relative viability (Tivantinib + Dasatinib; first compound 0.01 µM)	relative viability (Tivantinib + Dasatinib; first compound 0.03162 µM)	relative viability (Tivantinib + Dasatinib; first compound 0.1 µM)	relative viability (Tivantinib + Dasatinib; first compound 0.3162 µM)
NCI-H1355	1.08	0.897	0.999	1.22	0.825	1.02	1.04	0.999	1.15	0.78	0.787	0.687	0.726	0.723	0.666	0.668	0.675	0.564
NCI-H1651	1.1	1.07	0.935	1.23	1.03	0.83	0.979	0.9	0.945	0.767	0.768	1.02	0.764	0.77	0.386	0.354	0.391	0.475
NCI-H2023	1.02	0.996	0.977	1.09	0.956	1.04	0.898	0.844	0.889	0.47	0.867	0.82	0.673	0.528	0.678	0.564	0.506	0.521
LU99A	0.989	0.802	0.846	0.893	0.964	1.08	0.988	1	1.03	0.955	0.277	0.26	0.235	0.208	0.533	0.64	0.527	0.402
